How the values were obtained:
Assay type in all cases: biochemical
[1] = system: mammalian vacuolar-type (H+)-ATPase (from chromaffin granule membranes); assay: mammalian vacuolar-type (H+)-ATPase inhibition, side-by-side test; conditions: mammalian versus fungal enzyme
Description: The inhibitory data were obtained using the same procedures and biological preparations described in Bowman et al., Proc. Natl. Acad. Sci. USA, 85, 7972-7976 (November 1988).

[2] = system: vacuolar-type (H+)-ATPase derived from macrophage cells (J774); assay: vacuolar-type (H+)-ATPase inhibition assay, membrane vesicles (J774); conditions: bafilomycin-sensitive activity; oligomycin 5 μg/ml and vanadate 1 mM present; 37°, 30 minutes
Method: (§1) Inhibition of bafilomycin-sensitive vacuolar-type (H+)-ATPase activity was measured in partially purified membrane vesicle preparations from human osteoclastoma cells (hOc), human renal cortical cells (hK), and macrophage cells (J774). The vesicles were prepared by appropriate adaptations of methods described in Gagliardi et al., J. Med. Chem., 41, 1568-1573 (1998); and Gagliardi et al., J. Med. Chem., 41, 1883-1893 (1998).
(§2) Vacuolar-type (H+)-ATPase assays were performed in the presence of oligomycin (5 μg/ml) and vanadate (1 mM) as inhibitors of F- and P-ATPases, respectively. A […] method was used to quantitate the residual bafilomycin-sensitive vacuolar-type (H+)-ATPase activity (see Chan et al., Anal. Biochem., 157, 375-380 (1986)). The assay measures the release of inorganic phosphate from ATP at 37° during 30 minutes of incubation. The reaction is initiated by the addition of MgSO4 ([…]).

[3] = system: vacuolar-type (H+)-ATPase derived from human kidney cells (hK); assay: vacuolar-type (H+)-ATPase inhibition assay, membrane vesicles (hK); conditions: bafilomycin-sensitive activity; oligomycin 5 μg/ml and vanadate 1 mM present; 37°, 30 minutes
Method: as §1, §2

CO/N=C/C=C\C(=O)N/C=C/CC1CC(=O)OC(C)/C=C/C(O)/C(C)=C\Cc2cccc(O)c2C(=O)O1 (stereo not drawn) [lobatamide A]
selectivity for mammalian versus fungal vacuolar-type (H+)-ATPase [1]: highly selective
IC50 [2]: 2.8 nM
IC50 [3]: 1.8 nM

Source: patent publication US7381744B1, “Method of treating osteoporosis comprising vacuolar-type (H+)-ATPase-inhibiting compounds” (The United States of America as represented by the …, priority 1999, dated 2008)
